Experiments:
[1] = target: T1, Human neutrophil elastase (Homo sapiens, UniProt P08246); experiment: Elastase enzymatic cleavage; assay type: in vitro ADME; details: human neutrophil elastase 150 nM, peptide 1 mM, 30 min, 37 °C; for identified fragments of peptides after elastase digestion (most abundant MS signals): 300 rpm, 0.1 M Tris HCl, 500 mM NaCl, 0.05% Triton X-100, 20 mM CaCl2 pH 7.5, HPLC and MALDI or LC-MS
T1 construct: purchased Sigma-Aldrich
T1 sequence (P08246 30-267): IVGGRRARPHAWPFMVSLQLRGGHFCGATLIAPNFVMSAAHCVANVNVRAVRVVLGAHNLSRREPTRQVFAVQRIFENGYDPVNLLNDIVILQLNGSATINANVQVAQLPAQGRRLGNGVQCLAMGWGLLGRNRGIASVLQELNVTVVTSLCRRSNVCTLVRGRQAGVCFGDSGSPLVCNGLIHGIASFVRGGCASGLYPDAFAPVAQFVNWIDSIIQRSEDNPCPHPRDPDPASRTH
Protocol: Human neutrophil elastase (EC No. 3.4.21.37, Sigma-Aldrich) was used to study peptide susceptibility to that enzyme. Peptides were dissolved in 0.1 M Tris HCl, 500 mM NaCl, 0.05% Triton X-100, 20 mM CaCl2 pH 7.5 buffer mixture. Peptides (final concentration 1 mM) were mixed with the enzyme (final concentration 150 nM) and incubated for 30 min. in a thermoshaker (37 °C, 300 rpm). The reaction was stopped by a 10% aqueous solution of TFA. The results were analyzed using HPLC and MALDI or LC–MS. Details of this experiment are described in the Supplementary Data.

dorsal skin wounds = experiment: Histological evaluation of skin samples; assay type: in vivo, BALB/c mice; details: Masson’s trichrome, versus RADA16-I group, Mann–Whitney U test
From the text: Mice were sacrificed on day 18 post-injury. In addition, for investigation of early wound healing, 1 mouse from each group was sacrificed on day 4 post-injury. The skin samples were collected and stored in formalin. Skin samples embedded in paraffin were cut into 5 µm sections following staining with Masson’s trichrome (green: collagen, dermis; grey or dark grey: cell nuclei, epidermis, sebaceous glands; dark red: keratinized epidermis, muscle, hair; light red: red blood cells). Image acquisitions were made with a Leica DM IL microscope. To evaluate the collagen density in dorsal skin wounds, we employed the method of colour deconvolution described by Ruifrok and Johnston[52]. Using the ImageJ software with a colour deconvolution plug-in[53], we analyzed between 7 and 9 images of dorsal skin samples stained with Masson’ trichrome, representing 2–3 mice per group. The results are presented as mean relative collagen density.

Rheology of hydrogels = assay type: physicochemical; details: 1% hydrogel, 37 °C
Protocol: Rheological parameters of the hydrogels were identified using an MCR 302 rheometer (Anton Paar GmbH, Graz, Austria). The rheometer was equipped with a CP50-1 stainless steel cone-and-plate system of 50 mm diameter, 1° cone angle and 50 µm cone truncation and a Peltier controlled temperature unit. An aliquot of 900 µL of 1% hydrogel was applied to a plate cone. The linear viscoelastic (LVE) region was determined through an amplitude sweeps: shear strain (0.01–100% at 6 rad s^−1) and shear stress (0.001–10 Pa at 6.28 rad s^−1). Frequency sweep were measured from 0.01 to 100 rad s^−1 at 2.5% strain. The frequency dependence of the storage modulus (G’) and loss modulus (G”) of the hydrogels were measured at 37 °C. All experiments were carried out in triplicate and reported as the mean of three repeats.

SMILES: CC(=O)N[C@@H](CCCNC(=N)N)C(=O)N[C@@H](C)C(=O)N[C@@H](CC(=O)O)C(=O)N[C@@H](C)C(=O)N[C@@H](CCCNC(=N)N)C(=O)N[C@@H](C)C(=O)N[C@@H](CC(=O)O)C(=O)N[C@@H](C)C(=O)N[C@@H](CCCNC(=N)N)C(=O)N[C@@H](C)C(=O)N[C@@H](CC(=O)O)C(=O)N[C@@H](C)C(=O)N[C@@H](CCCNC(=N)N)C(=O)N[C@@H](C)C(=O)N[C@@H](CC(=O)O)C(=O)N[C@@H](C)C(=O)NCC(=O)NCC(=O)NCC(=O)N[C@@H](C)C(=O)N[C@@H](C)C(=O)N1CCC[C@H]1C(=O)N[C@H](C(=O)NCC(=O)NCC(=O)NCC(=O)N[C@@H](CCCCN)C(=O)NCC(=O)N[C@@H](Cc1c[nH]cn1)C(=O)N[C@@H](CCCCN)C(N)=O)C(C)C [RADA-KGHK, Ac-(Arg-Ala-Asp-Ala)4-Gly-Gly-Gly-Ala-Ala-Pro-Val-Gly-Gly-Gly-Lys-Gly-His-Lys-NH2]
- identified fragments of peptides after elastase digestion (most abundant MS signals) ([1]; fragment Ac-(RADA)4-GGG-AAPV-COOH): Ac-(RADA)4-GGG-AAPV-COOH
- identified fragments of peptides after elastase digestion (most abundant MS signals) ([1]; fragment NH2-APV-GGG-KGHK-NH2): NH2-APV-GGG-KGHK-NH2
- identified fragments of peptides after elastase digestion (most abundant MS signals) ([1]; fragment NH2-PV-GGG-KGHK-NH2): NH2-PV-GGG-KGHK-NH2
- main / predominant fragments of elastase digestion ([1]; pH 7.5 buffer, HPLC, mass spectrometry): Ala^21Pro^22Val^23Gly^24Gly^25Gly^26Lys^27Gly^28His^29Lys^30
- epithelium (membrane-like structure) thickness on day 4 post-injury (dorsal skin wounds): significantly thicker epithelium
- magnitude of G’ compared with other gels (Rheology of hydrogels; cone-plate, frequency sweep, mean of three repeats): around one-tenth of these values
- shear strain above which the gel behaves like a liquid (G” > G’) (Rheology of hydrogels; strain sweep, ω = 6.28 rad/s): above 25%

Reference: paper PMC10113214 (Scientific Reports, 2023)
